How the values were obtained:
[1] = tested on: SNB-19; assay: NCI 60 cell panel SRB screen; assay type: cell-based; settings: Homo sapiens; for activity at 10 µM: SNB-19, single dose 10 μM, read-out: percent cell growth promotion
[2] = tested on: IGROV1; assay: NCI 60 cell panel SRB screen; assay type: cell-based; settings: Homo sapiens, IGROV-1; for activity at 10 µM: IGROV1, single dose 10 μM, read-out: percent cell growth promotion
[3] = tested on: CAKI-1; assay: NCI 60 cell panel SRB screen; assay type: cell-based, human; settings: for activity at 10 µM: CAKI-1, single dose 10 μM, read-out: percent cell growth promotion
[4] = tested on: U251; assay: NCI 60 cell panel SRB screen; assay type: cell-based; settings: Homo sapiens, U-251; for activity at 10 µM: U251, single dose 10 μM, read-out: percent cell growth promotion
[5] = tested on: NCI-H23; assay: NCI 60 cell panel SRB screen; assay type: cell-based; settings: Homo sapiens; for activity at 10 µM: NCI-H23, single dose 10 μM, read-out: percent cell growth promotion
[6] = tested on: SNB-75; assay: NCI 60 cell panel SRB screen; assay type: cell-based; settings: Homo sapiens; for activity at 10 µM: SNB-75, single dose 10 μM, read-out: percent cell growth promotion
[7] = tested on: RXF 393; assay: NCI 60 cell panel SRB screen; assay type: cell-based; settings: Homo sapiens; for activity at 10 µM: RXF 393, single dose 10 μM, read-out: percent cell growth promotion
[8] = tested on: PC-3; assay: NCI 60 cell panel SRB screen; assay type: cell-based; settings: Homo sapiens; for activity at 10 µM: PC-3, single dose 10 μM, read-out: percent cell growth promotion
[9] = tested on: SK-MEL-28; assay: NCI 60 cell panel SRB screen; assay type: cell-based; settings: Homo sapiens; for activity at 10 µM: SK-MEL-28, read-out: percent cell growth promotion
[10] = tested on: NCI-H460; assay: NCI 60 cell panel SRB screen; assay type: cell-based; settings: Homo sapiens; for activity at 10 µM: NCI-H460, single dose 10 μM, read-out: percent cell growth promotion
[11] = tested on: full NCI 60 cell panel; assay: NCI 60 cell panel SRB screen, whole panel; assay type: cell-based, human; settings: for activity at 10 µM: mean over the panel, single dose 10 μM, read-out: Mean percent cell growth promotion
Excerpt: Aiming to evaluate the general antitumour activity of the synthesised phthalazines, the structures of the final compounds were submitted to National Cancer Institute “NCI” (www.dtp.nci.nih.gov), Bethesda, Maryland, USA. In vitro NCI anticancer screening involves two-stage process, the first stage started with the evaluation of the selected candidates against the full NCI 60 cell lines panel representing leukaemia, non-small cell lung cancer, melanoma, colon, CNS, breast, ovarian, renal and prostate cancers at a single dose of 10 µM. NCI selection is based on degree of structure variation and application of computer modelling techniques to prioritise compounds based on their ability to add diversity to the NCI small molecule compound collection.
Eight compounds (6b, 6e, 7b, 13a, 13c, 16a, 16d and 17a) were selected by NCI for further 5 log dose screening against full NCI 60 cell panel. All the 60 cell lines, representing nine tumour subpanels (leukaemia, non-small cell lung cancer, colon cancer, CNS cancer, prostate cancer, melanoma, ovarian cancer, renal cancer and breast cancer) which were incubated at five different concentrations (0.01, 0.1, 1, 10 and 100 µM) of each of the test compounds. The outcomes were used to create log concentration vs % growth inhibition curves, then three response parameters (GI50, TGI and LC50) were calculated for each cell line, (Tables S4 and S5 in Supplementary material).
The human tumor cell lines of the cancer-screening panel were grown in RPMI 1640 medium containing 5% fetal bovine serum and […] L-glutamine. For a typical screening experiment, cells are inoculated into 96 well microtiter plates in 100 ml at plating densities ranging from 5000 to 40,000 cells/well depending on the doubling time of individual cell lines. After cell inoculation, the microtiter plates are incubated at 37 °C, 5% CO2, 95% air and 100%
relative humidity for 24 h prior to addition of experimental drugs. After 24 h, two plates of each cell line are fixed in situ with TCA, to represent a measurement of the cell population for each cell line at the time of drug addition (Tz). Experimental drugs are dissolved in dimethyl sulfoxide at 400-fold the desired final maximum test concentration and stored frozen prior to use. At the time of drug addition, an aliquot of frozen concentrate is thawed and diluted to twice the desired final maximum test concentration with complete medium containing […] Gentamicin. Additional four, 10-fold or ½log serial dilutions are made to provide a total of five drug concentrations plus control. Aliquots of […] of these different drug dilutions are added to the appropriate microtiter wells already containing 100 ml of medium, resulting in the required final drug concentrations. Following drug addition, the plates are incubated for an additional 48 h at 37 °C, 5% CO2, 95% air, and 100% relative humidity. For adherent cells, the assay is terminated by the addition of cold TCA. Cells are fixed in situ by the gentle addition of […] of cold 50% (w/v) TCA (final concentration,10% TCA) and incubated for 60 min at 4 °C. The supernatant is discarded, and the plates are washed five times with tap water and air dried. Sulforhodamine B (SRB) solution (100 ml) at 0.4% (w/v) in 1% acetic acid is added to each well, and plates are incubated for 10 min at room temperature. After staining, unbound dye is removed by washing five times with 1% acetic acid and the plates are air dried. Bound stain is subsequently dissolved with 10 μM trizma base, and the absorbance is read on an automated plate reader at a wavelength of 515 nm. For suspension cells, the methodology is the same except that the assay is terminated by fixing settled cells at the bottom of the wells by gently adding […] of 80% TCA (final concentration, 16% TCA). […]

[12] = tested on: SN12C; assay: NCI 60 cell panel SRB screen; assay type: cell-based; settings: Homo sapiens; for activity at 10 µM: single dose 10 μM, read-out: percent cell growth promotion
[13] = tested on: NCI/ADR-RES; assay: NCI 60 cell panel SRB screen; assay type: cell-based; settings: Homo sapiens; for activity at 10 µM: single dose 10 μM, read-out: percent cell growth promotion
[14] = tested on: ACHN; assay: NCI 60 cell panel SRB screen; assay type: cell-based; settings: Homo sapiens; for activity at 10 µM: single dose 10 μM, read-out: percent cell growth promotion
[15] = tested on: SK-OV-3; assay: NCI 60 cell panel SRB screen; assay type: cell-based; settings: Homo sapiens; for activity at 10 µM: SK-OV-3, single dose 10 μM, read-out: percent cell growth promotion
[16] = tested on: OVCAR-5; assay: NCI 60 cell panel SRB screen; assay type: cell-based; settings: Homo sapiens; for activity at 10 µM: OVCAR-5, single dose 10 μM, read-out: percent cell growth promotion
[17] = tested on: HL-60(TB); assay: NCI 60 cell panel SRB screen; assay type: cell-based; settings: Homo sapiens; for activity at 10 µM: single dose 10 μM, read-out: percent cell growth promotion
[18] = tested on: T-47D; assay: NCI 60 cell panel SRB screen; assay type: cell-based; settings: Homo sapiens, T47D; for activity at 10 µM: read-out: percent cell growth promotion
[19] = tested on: NCI-H226; assay: NCI 60 cell panel SRB screen; assay type: cell-based; settings: Homo sapiens; for activity at 10 µM: NCI-H226, single dose 10 μM, read-out: percent cell growth promotion
[20] = 5 log dose, 48 h, read-out: LC50 (the source's name)

Structure (SMILES): Cc1nnc(Nc2ccc(NC(=O)c3ccc(Cl)cc3)cc2)c2ccccc12 [Compound 5d, 4-Chloro-N-(4–(4-methylphthalazin-1-ylamino)phenyl)benzamide]
- activity at 10 µM [1]: 92%
- activity at 10 µM [2]: 101%
- activity at 10 µM ([3]; Homo sapiens): 86.3%
- activity at 10 µM [4]: 81%
- activity at 10 µM [5]: 95%
- activity at 10 µM [6]: 81.2%
- activity at 10 µM [7]: 98.7%
- activity at 10 µM [8]: 72.6%
- activity at 10 µM [9]: 106%
- activity at 10 µM [10]: 96.4%
- activity at 10 µM ([11]; Homo sapiens, 60 cell): 93%
- cell growth inhibition, in words ([11]; single dose 10 µM): Neither of the biarylamides (5b, and 5d) nor the piperazines (8a, 8d, 8f, 8g, 8h and 8i) showed any significant cell line growth inhibition
- activity at 10 µM [12]: 91%
- activity at 10 µM [13]: 96%
- activity at 10 µM [14]: 111%
- activity at 10 µM [15]: 83.5%
- activity at 10 µM [16]: 98.5%
- activity at 10 µM [17]: 103%
- activity at 10 µM [18]: 79.8%
- activity at 10 µM [19]: 76.3%

Structure (SMILES): O=C(Nc1ccc(Cl)cc1)Nc1ccc(Nc2nncc3ccccc23)cc1 [Compound 6b, 1–(4-Chlorophenyl)-3–(4-(phthalazin-1-ylamino)phenyl)urea]
- GI50 ([1]; SNB-19, 5 log dose): 3.67 µM
- IC (TGI) ([1]; SNB-19, 5 log dose): 19 µM
- CC50 ([1]; SNB-19, 5 log dose, 48 h, read-out: LC50 (the source's name)): > 100 µM
- activity at 10 µM [1]: 33%
- GI50 ([2]; IGROV1, 5 log dose): 2.52 µM
- IC (TGI) ([2]; IGROV1, 5 log dose): 30.7 µM
- CC50 ([2]; IGROV1, 5 log dose, 48 h, read-out: LC50 (the source's name)): > 100 µM
- activity at 10 µM [2]: 39.7%
- TGI ([3]; CAKI-1, 5 log dose): 12.5 µM
- GI50 ([3]; Homo sapiens, CAKI-1, 5 log dose): 1.97 µM
- CC50 ([3]; Homo sapiens, CAKI-1, 5 log dose, 48 h, read-out: LC50 (the source's name)): 88 µM
- activity at 10 µM ([3]; Homo sapiens): 20.6%
- GI50 ([4]; U251, 5 log dose): 2.86 µM
- IC (TGI) ([4]; U251, 5 log dose): 10.3 µM
- CC50 ([4]; U251, 5 log dose, 48 h, read-out: LC50 (the source's name)): 37.2 µM
- activity at 10 µM [4]: 18.3%
- GI50 ([5]; NCI-H23, 5 log dose): 3.07 µM
- IC (TGI) ([5]; NCI-H23, 5 log dose): 14.4 µM
- CC50 ([5]; NCI-H23, 5 log dose, 48 h, read-out: LC50 (the source's name)): 71.8 µM
- activity at 10 µM [5]: 12.5%
- GI50 ([6]; SNB-75, 5 log dose): 1.88 µM
- IC (TGI) ([6]; SNB-75, 5 log dose): 8.67 µM
- LC50 (concentration killing 50% of cells) ([6]; SNB-75, 5 log dose, 48 h): 31.8 µM
- activity at 10 µM [6]: 46.2%
- GI50 ([7]; RXF 393, 5 log dose): 4.28 µM
- IC (TGI) ([7]; RXF 393, 5 log dose): 21.4 µM
- CC50 ([7]; RXF 393, 5 log dose, 48 h, read-out: LC50 (the source's name)): > 100 µM
- activity at 10 µM [7]: 65.7%
- GI50 ([8]; PC-3, 5 log dose): 2.32 µM
- IC (TGI) ([8]; PC-3, 5 log dose): 11 µM
- CC50 ([8]; PC-3, 5 log dose, 48 h, read-out: LC50 (the source's name)): 55.4 µM
- activity at 10 µM [8]: 1.46%
- GI50 ([9]; SK-MEL-28): 3.04 µM
- IC (TGI) ([9]; SK-MEL-28, read-out: TGI): 12.8 µM
- activity at 10 µM [9]: 44.1%
- CC50 ([9]; SK-MEL-28, 5 log dose, 48 h, read-out: LC50 (the source's name)): 51.5 µM
- GI50 ([10]; NCI-H460, 5 log dose): 2.91 µM
- IC (TGI) ([10]; NCI-H460, 5 log dose): 11.9 µM
- LC50 (concentration causing 50% cell kill) ([10]; NCI-H460, 5 log dose, 48 h): 56.8 µM
- activity at 10 µM [10]: 9.89%
- activity at 10 µM ([11]; Homo sapiens, 60 cell): 25%
- inhibition at 10 µM ([11]; Homo sapiens, 60 cell, single dose 10 µM, read-out: cell growth inhibition against various cell lines): > 90%
- GI50 ([12]; 5 log dose): 4.58 µM
- IC (TGI) ([12]; 5 log dose): 37.2 µM
- CC50 [12, 20]: > 100 µM
- activity at 10 µM [12]: 26.4%
- GI50 ([13]; 5 log dose): 2.79 µM
- IC (TGI) ([13]; 5 log dose): 26.3 µM
- CC50 [13, 20]: > 100 µM
- activity at 10 µM [13]: 36.2%
- GI50 ([14]; 5 log dose): 1.12 µM
- IC (TGI) ([14]; 5 log dose): 7.12 µM
- CC50 [14, 20]: > 100 µM
- activity at 10 µM [14]: 22.4%
- GI50 ([15]; SK-OV-3, 5 log dose): 3.05 µM
- IC (TGI) ([15]; SK-OV-3, 5 log dose): 17.7 µM
- CC50 ([15]; SK-OV-3, 5 log dose, 48 h, read-out: LC50 (the source's name)): > 100 µM
- activity at 10 µM [15]: 38.2%
- GI50 ([16]; OVCAR-5, 5 log dose): 4.15 µM
- IC (TGI) ([16]; OVCAR-5, 5 log dose): 34.3 µM
- CC50 ([16]; OVCAR-5, 5 log dose, 48 h, read-out: LC50 (the source's name)): > 100 µM
- activity at 10 µM [16]: 85.6%
- GI50 ([17]; 5 log dose): 2.42 µM
- IC (TGI) ([17]; 5 log dose): 7 µM
- CC50 [17, 20]: > 100 µM
- activity at 10 µM [17]: 18.1%
- GI50 [18]: 1.03 µM
- IC (TGI) ([18]; read-out: TGI): 5.35 µM
- activity at 10 µM [18]: -6.32%
- CC50 ([18]; T-47D, 5 log dose, 48 h, read-out: LC50 (the source's name)): 79.3 µM
- GI50 ([19]; NCI-H226, 5 log dose): 2.46 µM
- IC (TGI) ([19]; NCI-H226, 5 log dose): 12.5 µM
- CC50 ([19]; NCI-H226, 5 log dose, 48 h, read-out: LC50 (the source's name)): 43.2 µM
- activity at 10 µM [19]: 33.3%

— publication PMC6691788, “Design and synthesis of phthalazine-based compounds as potent anticancer agents with potential antiangiogenic activity via VEGFR-2 inhibition” (Journal of Enzyme Inhibition and Medicinal Chemistry, 2019)
